Data: PubChem BioAssay AID192 (DTP/NCI, 2004)
Where “and” joins values, the source holds several entries; their conditions need not be identical. Equal values may be shown once. Toxic doses and inconclusive results are not listed. How the source made its calls: active means survival T/C of 150% or more; inactive means T/C below 125% in these data.

Tested on: BDF1 mice, B16 melanoma ip, median survival T/C
Assay: NCI In Vivo Anticancer Drug Screen. Data for tumor model B16 Melanoma (intraperitoneal) in B6D2F1 (BDF1) mice
Conditions: endpoint: median survival time, higher = longer survival
Method in brief: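 Transplantable tumor model; survival or tumor size measured; reported as T/C, treated over vehicle control.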

[1] = dose: 25.0 mg/kg/injection, schedule: Q01DX009 (ip), vehicle: saline with Tween-80
[2] = dose: 50.0 mg/kg/injection, schedule: Q01DX009 (ip), vehicle: saline with Tween-80
[3] = dose: 2.5 mg/kg/injection, schedule: Q01DX009 (ip), vehicle: Klucel (hydroxypropylcellulose) (HPC)
[4] = dose: 5.0 mg/kg/injection, schedule: Q01DX009 (ip), vehicle: Klucel (hydroxypropylcellulose) (HPC)
[5] = dose: 10.0 mg/kg/injection, schedule: Q01DX009 (ip), vehicle: Klucel (hydroxypropylcellulose) (HPC)
[6] = dose: 3.12 mg/kg/injection, schedule: Q01DX009 (ip), vehicle: saline
[7] = dose: 6.25 mg/kg/injection, schedule: Q01DX009 (ip), vehicle: saline
[8] = dose: 100.0 mg/kg/injection, schedule: Q01DX009 (ip), vehicle: saline
[9] = dose: 25.0 mg/kg/injection, schedule: Q01DX009 (ip), vehicle: saline
[10] = dose: 50.0 mg/kg/injection, schedule: Q01DX009 (ip), vehicle: saline

Measured: T/C

CCS(=O)(=O)OCCCl
inactive: [1] 104 % of control | [2] 100 % of control | dose: 100.0 mg/kg/injection, schedule: Q01DX009 (ip), vehicle: saline with Tween-80 103 % of control

O=C1C(Cl)=C(N2CC2)C(=O)C(Cl)=C1N1CC1
inactive: dose: 0.62 mg/kg/injection, schedule: Q01DX009 (ip), vehicle: Klucel (hydroxypropylcellulose) (HPC) 105 % of control | dose: 1.25 mg/kg/injection, schedule: Q01DX009 (ip), vehicle: Klucel (hydroxypropylcellulose) (HPC) 105 % of control | [3] 114 % of control | dose: 2.5 mg/kg/injection, schedule: Q01DX009 (ip), vehicle: saline 115 % of control | [4] 123 % of control | [5] 124 % of control | dose: 20.0 mg/kg/injection, schedule: Q01DX009 (ip), vehicle: Klucel (hydroxypropylcellulose) (HPC) 124 % of control

CCCCCCCCCCCCCCCC[N+]1(C)CCN(SN2CC[N+](C)(CCCCCCCCCCCCCCCC)CC2)CC1
inactive: dose: 1.56 mg/kg/injection, schedule: Q01DX009 (ip), vehicle: saline 93 % of control | [6] 89 % of control | [7] 87 % of control and 89 % of control

CCCCCCCCCCCCO[P+](=O)OCCCCCCCCCCCC
inactive: [8] 88 % of control

CCSc1ccc2c(cc1=O)[C@@H](NC1OC(CO)C(O)C(O)C1O)CCc1cc(OC)c(OC)c(OC)c1-2 (some centres not stated)
inactive: dose: 50.0 mg/kg/injection, schedule: Q01DX009 (ip), vehicle: other 101 % of control | dose: 100.0 mg/kg/injection, schedule: Q01DX009 (ip), vehicle: other 109 % of control

COC(=O)C1=CCCN(C)C1
inactive: [6] 100 % of control | [7] 115 % of control | dose: 12.5 mg/kg/injection, schedule: Q01DX009 (ip), vehicle: saline 100 % of control | [9] 92 % of control | [10] 115 % of control

CC(C)NNC(=O)C(N)CCC(=O)O (configuration not stated)
inactive: [9] 97 % of control | [10] 104 % of control | [8] 95 % of control | dose: 200.0 mg/kg/injection, schedule: Q01DX009 (ip), vehicle: saline 100 % of control

CC(C)C(Br)C(=O)NCC(=O)O (configuration not stated)
inactive: dose: 12.5 mg/kg/injection, schedule: Q01DX009 (ip), vehicle: saline with Tween-80 101 % of control | [1] 95 % of control | [2] 102 % of control

CCCCn1ccnc1C
inactive: dose: 6.25 mg/kg/injection, schedule: Q01DX009 (ip), vehicle: water 106 % of control | dose: 12.5 mg/kg/injection, schedule: Q01DX009 (ip), vehicle: water 91 % of control | dose: 25.0 mg/kg/injection, schedule: Q01DX009 (ip), vehicle: water 101 % of control | dose: 50.0 mg/kg/injection, schedule: Q01DX009 (ip), vehicle: water 102 % of control

CCOC(=O)Nc1cc(N)cc(NC(=O)OCC)c1
inactive: dose: 50.0 mg/kg/injection, schedule: Q04DX003 (ip), vehicle: Klucel (hydroxypropylcellulose) (HPC) 94 % of control | dose: 100.0 mg/kg/injection, schedule: Q04DX003 (ip), vehicle: Klucel (hydroxypropylcellulose) (HPC) 100 % of control | dose: 200.0 mg/kg/injection, schedule: Q04DX003 (ip), vehicle: Klucel (hydroxypropylcellulose) (HPC) 94 % of control

Cc1cccc(C2NC(=O)c3ccccc3N2)c1 (configuration not stated)
inactive: dose: 100.0 mg/kg/injection, schedule: Q01DX009 (ip), vehicle: Klucel (hydroxypropylcellulose) (HPC) 109 % of control | dose: 200.0 mg/kg/injection, schedule: Q01DX009 (ip), vehicle: Klucel (hydroxypropylcellulose) (HPC) 112 % of control | dose: 400.0 mg/kg/injection, schedule: Q01DX009 (ip), vehicle: Klucel (hydroxypropylcellulose) (HPC) 115 % of control

C=C1Sc2ccccc2N1C
inactive: dose: 12.5 mg/kg/injection, schedule: Q01DX009 (ip), vehicle: Klucel (hydroxypropylcellulose) (HPC) 96 % of control | dose: 25.0 mg/kg/injection, schedule: Q01DX009 (ip), vehicle: Klucel (hydroxypropylcellulose) (HPC) 94 % of control

CNC(=S)N/N=C/CCC/C=N/NC(=S)NC
inactive: dose: 15.9 mg/kg/injection, schedule: Q01DX009 (ip), vehicle: saline with Tween-80 88 % of control | dose: 31.8 mg/kg/injection, schedule: Q01DX009 (ip), vehicle: saline with Tween-80 92 % of control

CC(C)(O)C1OCC(C2CCC3(C)C4=CCC5C(C)(C)C(O)CCC5(C)C4CCC23C)CC1O (configuration not stated)
inactive: [3] 102 % of control | [4] 98 % of control | [5] 89 % of control

CN(C)N=Nc1ccc(NC(N)=O)cc1
inactive: dose: 18.75 mg/kg/injection, schedule: Q01DX009 (ip), vehicle: Klucel (hydroxypropylcellulose) (HPC) 123 % of control | dose: 37.5 mg/kg/injection, schedule: Q01DX009 (ip), vehicle: Klucel (hydroxypropylcellulose) (HPC) 86 % of control
